Measurements as given in US20140005054A1, “COMPLEX RNA COMPOSITION OF BODILY FLUIDS” (INSTITUTE FOR SYSTEMS BIOLOGY, priority 2012, published 2014).

Key:
[1] = test system: mouse
[2] = test system: mouse; settings: in vivo
From the text: An acetaminophen overdose mouse model for drug-induced liver injury was employed to determine the effect of liver injury on the RNA spectrum.

[3] = test system: mouse dicer deficient (DCR −/−) fibroblast cell line; assay: Transfection of synthetic exogenous RNA into fibroblasts, effect on transcriptome (microarray, pathway enrichment of down-regulated genes); format: cell-based; settings: 10 nM synthetic RNA, 24 hours; for effects on the cellular transcriptome (gene expression profiles): microarray; for Affected pathways: pathways enriched among down-regulated genes
From the text: We transfected several synthetic, double-stranded RNA molecules selected from observed exogenous miRNA sequences and some highly abundant exogenous sequences (bacterial rRNAs) that have potential to form pre-miRNA-like secondary structures (FIG. 7) into a mouse fibroblast cell line.
The mouse dicer deficient (DCR −/−) fibroblast cell line was generated from a conditional cre and floxed Dicer allele transgenic mouse available from Jax (located on the web at jaxmice.jax.org/strain/006001.html) kindly provided by Dr. Jacques Peschon. Part of the RNase III domain encoded in the exon 23 of dicer gene was deleted following cre excision. DCR −/− cells were maintained in Dulbecco's modified Eagle's medium with high glucose. The media was supplemented with 10% FBS, 1% non-essential amino acid, 1% GlutaMAX™. The cells were routinely incubated at 37° C. in a humidified atmosphere with 5% CO2.
Lipofectamine™ RNAiMAX was purchased from Invitrogen (Life Technologies, Carlsbad, Calif.). Custom designed exogenous RNA used in transfection was obtained from Ambion (Life Technologies, Carlsbad, Calif.). DCR −/− cells were seeded at a density of 1×10^5 cells in 6-well tissue culture plates 24 h prior to transfect with 10 nM of synthetic RNAs. Cells exposed to transfection reagents only were used as control. After 24 hours in the transfection media, the cells were harvested for RNA isolation and the transfection efficiency was validated with qPCR.
Effects of exogenous RNAs on transcriptome were assessed by using the Agilent mouse 4×44K microarray (Agilent, Santa Clara, Calif.). Total RNAs were isolated with an miRNeasy® column (Qiagen, Valencia, Calif.), and both Cy3 and Cy5-labeled cRNA samples were prepared with two color labeling kit (Agilent Technologies, Santa Clara, Calif.) and then hybridized at 65° C. for 17 h. Signal intensity was calculated from digitized images captured by a scanner from Agilent (Santa Clara, Calif.), and data analysis was performed by using GeneSpring GX software (Agilent Technologies, Santa Clara, Calif.).
The expression profiles of a number of genes in the cells were affected by some of the exogenous RNA sequences. We verified the changes in levels of some of these affected genes' mRNA by QPCR (FIG. 8).

[4] = Stability of RNA in plasma after enzyme or detergent treatment, qPCR; format: in vitro ADME, human
Procedure: The plasma samples were treated with various conditions (indicated on the top of the figure) prior to RNA isolation. The Y-axis represents the relative concentration change compared to no treatment determined by qPCR. The data represents the average changes from 9 plasma samples. The black bars represent the changes of an endogenous miRNA, miR-16, the open bars are exogenous miRNA, miR-263 from mosquitos and the gray bars are the 16S rRNA from Pseudomonas putida.
To explore the stability of exogenous RNA in plasma, we treated the plasma with RNase A from Fermentas™ (Thermo Scientific™, Wilmington, Del.) at a concentration at 1 μg/ml, DNase I (Fermentas™, Thermo Scientific™, Wilmington, Del.) at a concentration of 1 unit/ml, protease K (Fermentas™, Thermo Scientific™, Wilmington, Del.) at a concentration of 0.05 mg/ml, 0.1% Triton™ X 100, or protease K for 20 minutes followed by additional RNase A at 1 μg/ml after heat inactivation of protease K at 70° C. for 10 minutes prior for RNA isolation.
Adding additional RNase caused less reduction compared to protease followed by RNase treatments.

| Compound | histopathology of liver tissues ([1]; acetaminophen overdose) | histopathology of kidney tissues ([1]; mouse, in vivo) | level of albumin transcript in plasma [2] | level of apolipoprotein A2 (apoA2) transcript in plasma [2] | level of transferrin transcript in plasma [2] | number of transcripts in plasma affected [2] | time course of albumin transcript level in plasma [2] | time course of apoA2 transcript level in plasma [2] | time course of transferrin transcript level in plasma [2] | effects on the cellular transcriptome (gene expression profiles) [3] | Affected pathways [3] | level of RNA in plasma after treatment ([4]; 0.1% Triton X-100 prior to RNA isolation) | level of RNA in plasma after treatment ([4]; RNase A 1 μg/ml prior to RNA isolation) | level of RNA in plasma after treatment ([4]; protease K 0.05 mg/ml prior to RNA isolation) | level of RNA in plasma after treatment ([4]; protease K for 20 minutes followed by RNase A 1 μg/ml) |
| --- | --- | --- | --- | --- | --- | --- | --- | --- | --- | --- | --- | --- | --- | --- | --- |
| CC(=O)Nc1ccc(O)cc1 [acetaminophen] | typical zoon 3 hepatocyte death | renal tubular injury | significantly increased | significantly increased | significantly increased | Several hundred | spiked after 3 hours and decreased over a 24 hour period | spiked after 3 hours and decreased over a 24 hour period | increased to a lesser extent but held reasonably steady over a 24-hour period | – | – | – | – | – | – |
| Bantam: synthetic RNA UGAGAUCAUUGUGAAAGCUGAUU, Bantam miRNA from house fly (synthetic double-stranded RNA, chemistry not given here; listed as Musca domestica) | – | – | – | – | – | – | – | – | – | did not produce any significant effects | No enriched pathway | – | – | – | – |
| miR-263: exogenous miRNA AAUGGCACUGGAAGAAUUCACGG, miR-263a from mosquito; synthetic form transfected, native form measured in plasma (synthetic double-stranded RNA, chemistry not given here; listed as Culex pipiens) | – | – | – | – | – | – | – | – | – | did not produce any significant effects | No enriched pathway | reduced significantly | reduced significantly | reduced significantly | reduced significantly |
